Source: patent US20020006900A1, “Colon cancer KH-1 and N3 antigens” (priority 1997, published 2002)

Experiments:
[1] = tested on: Monoclonal Antibody BR 96 (Le^y related); test: Dot-blot immune stain of carbohydrates with monoclonal antibody BR 96; assay type: binding; settings: for Binding with BR 96 (Le^y related) by dot-blot: 0.5 μg antigen spotted, BR 96 diluted 1:500
Method: 0.5 μg KH-1 ceramide and other Ley antigen and unrelated antigens were spotted on nitrocellulose strips. Dot blot Immune staining was performed monoclonal antibody BR 96 after blocked with 6% bovine serum albumin in PBS for 1 h and incubated with antibody BR 96 (diluted 1:500 in PBS) overnight at room temperature. The strips were washed with PBS containing 0.05% Tween 20 and incubated with anti-mouse IgG antibody conjugated with horseradish peroxidase at 1:200 dilution for 3 h at room temperature. Then the strips were washed with PBS-0.05% Tween 20 and developed with 4-chloro-1-naphtol-H2O2.

[2] = tested on: Monoclonal Antibody F12 (FucosylGM1); test: Dot-blot immune stain of carbohydrates with monoclonal antibody F12; assay type: binding; settings: 0.5 μg antigen spotted

| Substance | Binding with BR 96 (Le^y related) by dot-blot [1] | Binding with F12 (FucosylGM1) by dot-blot [2] | Reaction with BR 96 antibody by dot-blot ([1]; compared with other Le^y related antigens) |
| --- | --- | --- | --- |
| Globo H ceramide [reference compound] | negative | negative | – |
| KH-1 antigen [KH-1 ceramide] | very strong | negative | reacted very strongly |
